# Test results published in article PMC2662861, “An unexpected phosphate binding site in Glyceraldehyde 3-Phosphate Dehydrogenase: Crystal structures of apo, holo and ternary complex of Cryptosporidium parvum enzyme” (BMC Structural Biology, 2009).
# Target: T1, CpGAPDH (Cryptosporidium parvum glyceraldehyde 3-phosphate dehydrogenase) (Cryptosporidium parvum, UniProt Q7YYQ9)
# T1 construct: gene cgd6_3790; recombinant, N-terminal hexa-histidine tag kept, expressed in E. coli; homotetramer
# Experiment: X-ray crystal structure, […] Å, co-crystallized
# Type: binding
# Settings: holoenzyme; 2 mM NAD; pH 7.5; NAD in all four subunits
# T1 sequence (Q7YYQ9 1-339): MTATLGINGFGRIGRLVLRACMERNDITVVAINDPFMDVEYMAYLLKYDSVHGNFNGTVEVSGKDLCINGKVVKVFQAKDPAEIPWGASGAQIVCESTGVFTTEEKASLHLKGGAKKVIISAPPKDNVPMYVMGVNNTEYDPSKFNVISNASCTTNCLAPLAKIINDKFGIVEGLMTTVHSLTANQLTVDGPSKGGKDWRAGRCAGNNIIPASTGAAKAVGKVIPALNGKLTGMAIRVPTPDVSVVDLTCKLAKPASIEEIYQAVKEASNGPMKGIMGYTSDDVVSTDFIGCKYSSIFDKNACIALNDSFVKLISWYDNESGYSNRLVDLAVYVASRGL
compound,measurement,value
NC(=O)c1ccc[n+]([C@@H]2O[C@H](COP(=O)(O)OP(=O)(O)OC[C@H]3O[C@@H](n4cnc5c(N)ncnc54)[C@H](O)[C@@H]3O)[C@@H](O)[C@H]2O)c1 [NAD],"X-ray crystal structure, 2.0 Å, co-crystallized",The holoenzyme form of CpGAPDH contains one NAD molecule in each subunit
